Assay results as given in ChEMBL document CHEMBL1671693, “Antimicrobial resistance of Listeria monocytogenes strains isolated from humans in France” (2010).
Values after ≈ are worked out from the molar mass of the structure shown.

Legend:
[1] = tested on: Listeria monocytogenes; test: Antibacterial activity against Listeria monocytogenes isolated from humans harboring cat gene; format: functional
[2] = tested on: Listeria monocytogenes; test: Antibacterial activity against Listeria monocytogenes isolated from humans harboring lde gene
[3] = tested on: Listeria monocytogenes; test: Antibacterial activity against Listeria monocytogenes isolated from humans with putative chromosomal mutation; format: functional
[4] = tested on: Listeria monocytogenes; test: Antibacterial activity against Listeria monocytogenes isolated from humans harboring int-tn gene; format: functional
[5] = tested on: Listeria monocytogenes; test: Antibacterial activity against Listeria monocytogenes isolated from humans harboring tet(M) gene; format: functional
[6] = tested on: Listeria monocytogenes; test: Antibacterial activity against Listeria monocytogenes isolated from humans harboring putative ribosomal mutation; format: functional
[7] = tested on: Listeria monocytogenes; test: Antibacterial activity against Listeria monocytogenes isolated from humans harboring mutant dfrD gene

`O=C(N[C@H](CO)[C@H](O)c1ccc([N+](=O)[O-])cc1)C(Cl)Cl` [CHLORAMPHENICOL] gave an MIC [1] of 48 mg/L (≈ 149 µM).
Molecule `O=C(O)c1cn(C2CC2)c2cc(N3CCNCC3)c(F)cc2c1=O` [CIPROFLOXACIN] has an MIC [2] of over 6 mg/L.
Molecule `CC[C@H]1OC(=O)[C@H](C)[C@@H](O[C@H]2C[C@@](C)(OC)[C@@H](O)[C@H](C)O2)[C@H](C)[C@@H](O[C@@H]2O[C@H](C)C[C@H](N(C)C)[C@H]2O)[C@](C)(O)C[C@@H](C)C(=O)[C@H](C)[C@@H](O)[C@]1(C)O` [ERYTHROMYCIN] has an MIC [3] of 256 mg/L (≈ 349 µM).
`CN(C)c1ccc(O)c2c1C[C@H]1C[C@H]3[C@H](N(C)C)C(O)=C(C(N)=O)C(=O)[C@@]3(O)C(O)=C1C2=O` [MINOCYCLINE] gave an MIC [4] of 8 mg/L (≈ 17.5 µM) and an MIC [5] of 8 mg/L (≈ 17.5 µM).
With `CN[C@@H]1[C@H](O[C@H]2[C@H](O[C@H]3[C@H](O)[C@@H](O)[C@H](N=C(N)N)[C@@H](O)[C@@H]3N=C(N)N)O[C@@H](C)[C@]2(O)C=O)O[C@@H](CO)[C@H](O)[C@H]1O` [STREPTOMYCIN] the MIC [6] was 256 mg/L (≈ 440 µM).
For `CN(C)[C@@H]1C(O)=C(C(N)=O)C(=O)[C@@]2(O)C(O)=C3C(=O)c4c(O)cccc4[C@@](C)(O)[C@H]3C[C@@H]12` [TETRACYCLINE], the MIC [4] was 16 mg/L (≈ 36 µM) and the MIC [5] was 16 mg/L (≈ 36 µM).
Work on `COc1cc(Cc2cnc(N)nc2N)cc(OC)c1OC` [TRIMETHOPRIM] yielded an MIC [7] of 1020 mg/L (≈ 3530 µM).
